Assay results published in ChEMBL document CHEMBL2034876, “Diversity-Oriented Synthesis Yields a Novel Lead for the Treatment of Malaria” (ACS Med Chem Lett, 2012).
Converted amounts (≈) assume the structure as drawn.

System: Plasmodium falciparum
Assay: Antimalarial activity against asexual blood stage form of Plasmodium falciparum Dd2 infected in human erythrocytes after 72 hrs by DAPI staining
Format: functional
Settings: Dd2, 72 h

Compared with `COc1ccc(COCCN2C[C@@H](C)[C@H](CN(C)S(=O)(=O)c3ccc(F)cc3)OCCCC[C@H](C)Oc3ccc(NC(=O)Nc4ccccc4)cc3C2=O)cc1`, `COc1ccc(COC[C@H](C)N2C[C@@H](C)[C@H](CN(C)S(=O)(=O)c3ccc(F)cc3)OCCCC[C@H](C)Oc3ccc(NC(=O)Nc4ccccc4)cc3C2=O)cc1` is 310-fold lower in GI50: 55 nM for the first, 0.18 nM for the second.

Going from `COc1ccc(S(=O)(=O)N(C)C[C@@H]2OCCCC[C@H](C)Oc3ccc(NC(=O)Nc4ccccc4)cc3C(=O)N([C@@H](C)CO)C[C@H]2C)cc1` to `C[C@@H]1CN([C@@H](C)CO)C(=O)c2cc(NC(=O)Nc3ccccc3)ccc2O[C@@H](C)CCCCO[C@H]1CN(C)S(=O)(=O)c1ccc(C(F)(F)F)cc1`, the GI50 rises from 160 nM to 877 nM (5.5-fold).

Going from `C[C@@H]1CN([C@@H](C)CN)C(=O)c2cc(NC(=O)Nc3ccccc3)ccc2O[C@@H](C)CCCCO[C@H]1CN(C)S(=O)(=O)c1ccc(F)cc1` to `CNC[C@H](C)N1C[C@@H](C)[C@H](CN(C)S(=O)(=O)c2ccc(F)cc2)OCCCC[C@H](C)Oc2ccc(NC(=O)Nc3ccccc3)cc2C1=O`, the GI50 falls from 370 nM to 79 nM (4.7-fold).

Going from `C[C@@H]1CN([C@@H](C)CO)C(=O)c2cc(NC(=O)Nc3ccccc3)ccc2O[C@@H](C)CCCCO[C@H]1CN(C)Cc1ccccc1` to `C[C@@H]1CN([C@@H](C)CO)C(=O)c2cc(NC(=O)Nc3ccccc3)ccc2O[C@@H](C)CCCCO[C@H]1CN(C)Cc1ccc(F)cc1`, the GI50 rises from 1100 nM to 4300 nM (3.9-fold).

Going from `COCOC[C@H](C)N1C[C@@H](C)[C@H](CN(C)S(=O)(=O)c2ccc(F)cc2)OCCCC[C@H](C)Oc2ccc(NC(=O)Nc3ccccc3)cc2C1=O` to `C[C@@H]1CN([C@@H](C)CN=[N+]=[N-])C(=O)c2cc(NC(=O)Nc3ccccc3)ccc2O[C@@H](C)CCCCO[C@H]1CN(C)S(=O)(=O)c1ccc(F)cc1`, the GI50 falls from 8.2 nM to 3.2 nM (2.6-fold).

Going from `C[C@@H]1CN([C@@H](C)CO)C(=O)c2cc(NC(=O)Nc3ccccc3)ccc2O[C@@H](C)CCCCO[C@H]1CN(C)C(=O)Oc1ccccc1` to `C[C@@H]1CN([C@@H](C)CO)C(=O)c2cc(NC(=O)Nc3ccccc3)ccc2O[C@@H](C)CCCCO[C@H]1CN(C)C(=O)c1ccccc1`, the GI50 falls from over 5000 nM to 2600 nM.

Compared with `C[C@@H]1CN([C@@H](C)CO)C(=O)c2cc(NC(=O)Nc3ccccc3)ccc2O[C@@H](C)CCCCO[C@H]1CN(C)C(=O)OC(C)(C)C`, `COCCOC(=O)N(C)C[C@@H]1OCCCC[C@H](C)Oc2ccc(NC(=O)Nc3ccccc3)cc2C(=O)N([C@@H](C)CO)C[C@H]1C` is higher in GI50: 1400 nM for the first, over 5000 nM for the second.

Going from `CC(C)NC(=O)Nc1ccc2c(c1)C(=O)N([C@@H](C)CO)C[C@@H](C)[C@H](CN(C)S(=O)(=O)c1ccc(F)cc1)OCCCC[C@H](C)O2` to `Cc1noc(C)c1NC(=O)Nc1ccc2c(c1)C(=O)N([C@@H](C)CO)C[C@@H](C)[C@H](CN(C)S(=O)(=O)c1ccc(F)cc1)OCCCC[C@H](C)O2`, the GI50 falls from 400 nM to 240 nM (1.7-fold).

Going from `COc1ccc(COC[C@@H](C)N2C[C@@H](C)[C@H](CN(C)S(=O)(=O)c3ccc(F)cc3)OCCCC[C@H](C)Oc3ccc(NC(=O)Nc4ccccc4)cc3C2=O)cc1` to `C[C@@H]1CN([C@@H](C)COC(=O)c2ccccc2)C(=O)c2cc(NC(=O)Nc3ccccc3)ccc2O[C@@H](C)CCCCO[C@H]1CN(C)S(=O)(=O)c1ccc(F)cc1`, the GI50 falls from 36 nM to 15 nM (2.4-fold).

First: C[C@@H]1CN([C@@H](C)CO)C(=O)c2cc(N(C)C)ccc2O[C@@H](C)CCCCO[C@H]1CN(C)S(=O)(=O)c1ccc(F)cc1
Second: C[C@@H]1CN([C@@H](C)CO)C(=O)c2cc(N)ccc2O[C@@H](C)CCCCO[C@H]1CN(C)S(=O)(=O)c1ccc(F)cc1
The GI50 of the first is higher: over 5000 nM for the first, 990 nM for the second.

First: C[C@@H]1CN([C@@H](C)CO)C(=O)c2cc(NC(=O)Nc3ccccc3)ccc2O[C@@H](C)CCCCO[C@H]1CN(C)S(=O)(=O)c1ccccc1F
Second: C[C@@H]1CN([C@@H](C)CO)C(=O)c2cc(NC(=O)Nc3ccccc3)ccc2O[C@@H](C)CCCCO[C@H]1CN(C)S(=O)(=O)c1ccccc1
The GI50 of the first is 3.1-fold higher: 1100 nM for the first, 350 nM for the second.

First: C[C@@H]1CN(CCO)C(=O)c2cc(NC(=O)Nc3ccccc3)ccc2O[C@@H](C)CCCCO[C@H]1CN(C)S(=O)(=O)c1ccc(F)cc1
Second: C[C@@H]1CN([C@@H](C)COC(=O)C(C)(C)C)C(=O)c2cc(NC(=O)Nc3ccccc3)ccc2O[C@@H](C)CCCCO[C@H]1CN(C)S(=O)(=O)c1ccc(F)cc1
The GI50 of the first is 88-fold higher: 640 nM for the first, 7.3 nM for the second.

Going from `C[C@@H]1CN([C@@H](C)CO)C(=O)c2cc(NC(=O)Nc3ccccc3)ccc2O[C@@H](C)CCCCO[C@H]1CN(C)S(=O)(=O)c1cccnc1` to `C[C@@H]1CN([C@@H](C)CO)C(=O)c2cc(NS(=O)(=O)c3ccccc3)ccc2O[C@@H](C)CCCCO[C@H]1CN(C)S(=O)(=O)c1ccc(F)cc1`, the GI50 falls from over 5000 nM to 2400 nM.

`C[C@@H]1CN([C@@H](C)CO)C(=O)c2cc(Nc3nc4ccccc4o3)ccc2O[C@@H](C)CCCCO[C@H]1CN(C)S(=O)(=O)c1ccc(F)cc1` gave a GI50 of 580 nM.

System: Plasmodium vivax
Assay: Inhibition of Plasmodium vivax DHODH-mediated 2,6-dichloroindophenol reduction after 20 mins by spectrophotometry
Settings: not given

Compound `C[C@@H]1CN([C@@H](C)CN(C)C)C(=O)c2cc(NC(=O)Nc3ccccc3)ccc2O[C@@H](C)CCCCO[C@H]1CN(C)S(=O)(=O)c1ccc(F)cc1` has an INH of over 30 µM.

Molecular target: Dihydroorotate dehydrogenase (quinone), mitochondrial (Homo sapiens) (UniProt Q02127)
Sequence (Q02127 whole entry): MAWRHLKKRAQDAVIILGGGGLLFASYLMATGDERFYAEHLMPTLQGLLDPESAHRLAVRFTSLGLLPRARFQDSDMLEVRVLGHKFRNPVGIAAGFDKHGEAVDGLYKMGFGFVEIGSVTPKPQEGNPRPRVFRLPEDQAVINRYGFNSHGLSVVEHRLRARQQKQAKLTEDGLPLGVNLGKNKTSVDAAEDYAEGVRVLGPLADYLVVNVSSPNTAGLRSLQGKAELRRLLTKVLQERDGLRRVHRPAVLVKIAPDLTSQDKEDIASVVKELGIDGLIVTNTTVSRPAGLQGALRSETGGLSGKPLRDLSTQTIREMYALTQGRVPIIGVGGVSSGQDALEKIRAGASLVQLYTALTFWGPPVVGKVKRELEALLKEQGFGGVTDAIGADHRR
Assay: Inhibition of human DHODH-mediated 2,6-dichloroindophenol reduction after 20 mins by spectrophotometry
Settings: not given

In the case of `C[C@@H]1CN([C@@H](C)CN(C)C)C(=O)c2cc(NC(=O)Nc3ccccc3)ccc2O[C@@H](C)CCCCO[C@H]1CN(C)S(=O)(=O)c1ccc(F)cc1`, the INH is reported as over 30 µM.

System: not listed separately
Assay: Aqueous solubility of the compound
Format: physicochemical
Settings: water

In the case of `C[C@@H]1CN([C@@H](C)CO)C(=O)c2cc(NC(=O)Nc3ccccc3)ccc2O[C@@H](C)CCCCO[C@H]1CN(C)C(=O)Oc1ccccc1`, the solubility is reported as 1.2 µM (≈ 0.776 µg/mL).

In the case of `C[C@@H]1CN([C@@H](C)COC(=O)C(C)(C)C)C(=O)c2cc(NC(=O)Nc3ccccc3)ccc2O[C@@H](C)CCCCO[C@H]1CN(C)S(=O)(=O)c1ccc(F)cc1`, the solubility is reported as under 0.5 µM.

System: Plasmodium berghei
Assay: Inhibition of Plasmodium berghei DHODH-mediated 2,6-dichloroindophenol reduction after 20 mins by spectrophotometry
Settings: not given

With `C[C@@H]1CN([C@@H](C)CN(C)C)C(=O)c2cc(NC(=O)Nc3ccccc3)ccc2O[C@@H](C)CCCCO[C@H]1CN(C)S(=O)(=O)c1ccc(F)cc1` the INH was over 30 µM.

Molecular target: T1, Dihydroorotate dehydrogenase (Plasmodium falciparum) (UniProt Q54A96)
T1 sequence (whole entry): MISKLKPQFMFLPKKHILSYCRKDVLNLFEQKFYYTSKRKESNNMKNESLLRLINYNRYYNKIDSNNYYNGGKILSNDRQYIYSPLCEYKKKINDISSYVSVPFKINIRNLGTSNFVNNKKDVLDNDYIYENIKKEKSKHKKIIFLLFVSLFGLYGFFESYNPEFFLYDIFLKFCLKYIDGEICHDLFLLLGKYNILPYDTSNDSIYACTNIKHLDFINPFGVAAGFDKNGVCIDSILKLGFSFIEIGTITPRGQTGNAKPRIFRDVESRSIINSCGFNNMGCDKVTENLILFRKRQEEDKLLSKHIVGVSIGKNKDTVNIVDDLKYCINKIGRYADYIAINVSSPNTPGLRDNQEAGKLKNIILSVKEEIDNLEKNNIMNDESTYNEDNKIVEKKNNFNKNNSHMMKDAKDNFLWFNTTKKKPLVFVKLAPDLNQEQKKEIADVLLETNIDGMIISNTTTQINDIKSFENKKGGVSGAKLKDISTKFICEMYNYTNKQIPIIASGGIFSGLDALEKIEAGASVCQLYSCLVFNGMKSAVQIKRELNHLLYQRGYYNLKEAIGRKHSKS
Assay: Inhibition of Plasmodium falciparum DHODH-mediated 2,6-dichloroindophenol reduction after 20 mins by spectrophotometry
Settings: not given

Compound `C[C@@H]1CN([C@@H](C)CN(C)C)C(=O)c2cc(NC(=O)Nc3ccccc3)ccc2O[C@@H](C)CCCCO[C@H]1CN(C)S(=O)(=O)c1ccc(F)cc1` has an INH of over 30 µM.
